US8546414B2, “Ion channel modulators and methods of use” (Vertex Pharmaceuticals Incorporated, priority 2004, dated 2013)
pIC50: −log10 of the molar value.

How the values were obtained:
Type in all cases: cell-based
[1] = molecular target: T1, CaV2.2 (Homo sapiens, UniProt Q00975); assay: VIPR optical membrane potential assay with electrical stimulation, CaV2.2; conditions: Table 9, CaV 2.2 receptors
T1 construct: expressed in transfected cells; host or cells: HEK293
Summary of the method: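 HEK293 cells stably expressing CaV2.2 stained with CC2-DMPE/DiSBAC2(3) voltage-sensitive dyes (10 μM final CC2-DMPE, 30 min, RT), then compound added and cells electrically stimulated for 3-5 s. Read-out: background-subtracted 460/580 nm emission ratio; response R=Rf/Ri (post- vs pre-stimulus ratio); antagonism seen as reduced response.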

[2] = molecular target: T2, NaV1.3 (Homo sapiens, UniProt Q9NY46); assay: VIPR optical membrane potential assay with electrical stimulation, NaV1.3; conditions: Table 9, NaV 1.3 receptors
T2 construct: expressed in transfected cells; host or cells: HEK293
Summary of the method: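 HEK293 cells stably expressing NaV1.3, stained with CC2-DMPE (10 μM final) then DiSBAC2(3) with ABSC1, 30 min each at RT; compounds added with oxonol. Electrical stimulation for 3 s; 460/580 nm background-subtracted emission ratio Rf/Ri, normalised to tetracaine (positive) and untreated (negative) controls.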

[3] = molecular target: NaV1.8 (Homo sapiens, UniProt Q9Y5Y9); assay: VIPR optical membrane potential assay, NaV1.8 (other subtypes in an analogous mode); conditions: Table 9, NaV 1.8 receptors
Description: Antagonist properties of test compounds were assessed as follows. Cells expressing the NaV of interest were placed into microtiter plates. After an incubation period, the cells were stained with fluorescent dyes sensitive to the transmembrane potential. The test compounds were added to the microtiter plate. The cells were stimulated with either chemical or electrical means to evoke a NaV dependent membrane potential change from unblocked channels, which was detected and measured with trans-membrane potential-sensitive dyes. Antagonists were detected as a decreased membrane potential response to the stimulus.
24 hours before the assay on VIPR, CHO cells endogenously expressing a NaV 1.2 type voltage-gated NaV are seeded in 96-well poly-lysine coated plates at 60,000 cells per well. […] Plates are incubated in the dark for 30 minutes at room temperature. • 4) While the cells are being stained with coumarin, a […] oxonol solution in BS#2 is prepared. […] As before, the residual volume should be 40 μL. • 6) Upon removing the bath, the cells are loaded with 80 μL of the DiSBAC2(3) solution, after which test compound, dissolved in DMSO, is added to achieve the desired test concentration to each well from the drug addition plate and mixed thoroughly. The volume in the well should be roughly 121 μL. The cells are then incubated for 20-30 minutes. • 7) Once the incubation is complete, the cells are ready to be assayed on VIPR® with a sodium addback protocol. 120 μL of Bath solution #1 is added to stimulate the NaV dependent depolarization. […] tetracaine was used as an antagonist positive control for block of the NaV channel. Analysis of VIPR® Data:
The following is an example of how NaV1.3 inhibition activity is measured using the optical membrane potential method#2. Other subtypes are performed in an analogous mode in a cell line expressing the NaV of interest.

T2 sequence (Q9NY46 whole entry): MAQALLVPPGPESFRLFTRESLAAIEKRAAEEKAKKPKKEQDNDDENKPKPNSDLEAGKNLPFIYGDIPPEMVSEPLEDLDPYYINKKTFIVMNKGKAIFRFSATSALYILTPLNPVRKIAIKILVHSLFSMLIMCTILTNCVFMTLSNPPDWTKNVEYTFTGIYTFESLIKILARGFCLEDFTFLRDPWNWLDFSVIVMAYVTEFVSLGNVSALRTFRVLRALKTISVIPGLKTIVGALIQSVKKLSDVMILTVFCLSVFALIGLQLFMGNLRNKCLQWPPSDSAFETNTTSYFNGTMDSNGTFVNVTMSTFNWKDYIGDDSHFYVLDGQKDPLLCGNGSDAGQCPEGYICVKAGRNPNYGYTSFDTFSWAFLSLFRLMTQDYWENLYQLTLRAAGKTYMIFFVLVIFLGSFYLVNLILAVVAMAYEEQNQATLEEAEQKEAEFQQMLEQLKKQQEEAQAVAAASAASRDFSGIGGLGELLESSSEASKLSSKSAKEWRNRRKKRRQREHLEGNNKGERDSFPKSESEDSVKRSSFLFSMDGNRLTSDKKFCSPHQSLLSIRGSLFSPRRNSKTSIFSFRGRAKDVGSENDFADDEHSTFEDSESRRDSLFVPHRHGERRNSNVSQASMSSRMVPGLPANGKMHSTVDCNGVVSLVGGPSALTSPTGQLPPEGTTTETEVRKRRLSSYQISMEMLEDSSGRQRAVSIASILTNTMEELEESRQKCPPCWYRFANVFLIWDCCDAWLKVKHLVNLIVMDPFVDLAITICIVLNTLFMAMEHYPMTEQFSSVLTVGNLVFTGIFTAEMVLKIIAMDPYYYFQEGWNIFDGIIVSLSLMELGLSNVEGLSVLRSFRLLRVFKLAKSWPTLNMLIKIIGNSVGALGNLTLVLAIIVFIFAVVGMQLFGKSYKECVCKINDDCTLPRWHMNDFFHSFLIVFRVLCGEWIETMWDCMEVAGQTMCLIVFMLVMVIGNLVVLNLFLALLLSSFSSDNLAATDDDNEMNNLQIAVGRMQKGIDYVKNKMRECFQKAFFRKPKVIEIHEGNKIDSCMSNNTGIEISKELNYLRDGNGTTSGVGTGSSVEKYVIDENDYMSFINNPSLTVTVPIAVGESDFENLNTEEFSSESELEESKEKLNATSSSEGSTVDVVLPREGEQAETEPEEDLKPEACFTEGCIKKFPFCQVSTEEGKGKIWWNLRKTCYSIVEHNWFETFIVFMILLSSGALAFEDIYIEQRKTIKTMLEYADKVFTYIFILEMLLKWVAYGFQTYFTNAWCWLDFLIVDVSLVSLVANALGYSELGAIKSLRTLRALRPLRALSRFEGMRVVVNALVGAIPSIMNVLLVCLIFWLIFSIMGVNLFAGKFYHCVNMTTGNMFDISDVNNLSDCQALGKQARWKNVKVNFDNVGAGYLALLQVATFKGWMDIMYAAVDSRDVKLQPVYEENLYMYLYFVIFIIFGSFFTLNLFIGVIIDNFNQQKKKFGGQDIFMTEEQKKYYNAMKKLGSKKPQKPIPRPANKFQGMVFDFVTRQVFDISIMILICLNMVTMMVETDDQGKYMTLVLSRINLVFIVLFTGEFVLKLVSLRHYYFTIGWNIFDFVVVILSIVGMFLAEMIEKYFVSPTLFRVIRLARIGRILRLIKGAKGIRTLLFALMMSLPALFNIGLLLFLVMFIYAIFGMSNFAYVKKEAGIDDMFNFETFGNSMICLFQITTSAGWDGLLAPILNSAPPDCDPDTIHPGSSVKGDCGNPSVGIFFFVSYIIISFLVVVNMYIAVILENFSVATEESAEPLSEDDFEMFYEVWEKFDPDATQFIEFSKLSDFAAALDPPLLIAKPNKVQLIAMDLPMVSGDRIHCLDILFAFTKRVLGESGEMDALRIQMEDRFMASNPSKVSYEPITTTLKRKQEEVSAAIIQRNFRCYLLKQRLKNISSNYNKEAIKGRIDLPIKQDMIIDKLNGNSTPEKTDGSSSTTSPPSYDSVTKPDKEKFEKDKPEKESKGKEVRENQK
Sequence of NaV1.8 (Q9Y5Y9 whole entry): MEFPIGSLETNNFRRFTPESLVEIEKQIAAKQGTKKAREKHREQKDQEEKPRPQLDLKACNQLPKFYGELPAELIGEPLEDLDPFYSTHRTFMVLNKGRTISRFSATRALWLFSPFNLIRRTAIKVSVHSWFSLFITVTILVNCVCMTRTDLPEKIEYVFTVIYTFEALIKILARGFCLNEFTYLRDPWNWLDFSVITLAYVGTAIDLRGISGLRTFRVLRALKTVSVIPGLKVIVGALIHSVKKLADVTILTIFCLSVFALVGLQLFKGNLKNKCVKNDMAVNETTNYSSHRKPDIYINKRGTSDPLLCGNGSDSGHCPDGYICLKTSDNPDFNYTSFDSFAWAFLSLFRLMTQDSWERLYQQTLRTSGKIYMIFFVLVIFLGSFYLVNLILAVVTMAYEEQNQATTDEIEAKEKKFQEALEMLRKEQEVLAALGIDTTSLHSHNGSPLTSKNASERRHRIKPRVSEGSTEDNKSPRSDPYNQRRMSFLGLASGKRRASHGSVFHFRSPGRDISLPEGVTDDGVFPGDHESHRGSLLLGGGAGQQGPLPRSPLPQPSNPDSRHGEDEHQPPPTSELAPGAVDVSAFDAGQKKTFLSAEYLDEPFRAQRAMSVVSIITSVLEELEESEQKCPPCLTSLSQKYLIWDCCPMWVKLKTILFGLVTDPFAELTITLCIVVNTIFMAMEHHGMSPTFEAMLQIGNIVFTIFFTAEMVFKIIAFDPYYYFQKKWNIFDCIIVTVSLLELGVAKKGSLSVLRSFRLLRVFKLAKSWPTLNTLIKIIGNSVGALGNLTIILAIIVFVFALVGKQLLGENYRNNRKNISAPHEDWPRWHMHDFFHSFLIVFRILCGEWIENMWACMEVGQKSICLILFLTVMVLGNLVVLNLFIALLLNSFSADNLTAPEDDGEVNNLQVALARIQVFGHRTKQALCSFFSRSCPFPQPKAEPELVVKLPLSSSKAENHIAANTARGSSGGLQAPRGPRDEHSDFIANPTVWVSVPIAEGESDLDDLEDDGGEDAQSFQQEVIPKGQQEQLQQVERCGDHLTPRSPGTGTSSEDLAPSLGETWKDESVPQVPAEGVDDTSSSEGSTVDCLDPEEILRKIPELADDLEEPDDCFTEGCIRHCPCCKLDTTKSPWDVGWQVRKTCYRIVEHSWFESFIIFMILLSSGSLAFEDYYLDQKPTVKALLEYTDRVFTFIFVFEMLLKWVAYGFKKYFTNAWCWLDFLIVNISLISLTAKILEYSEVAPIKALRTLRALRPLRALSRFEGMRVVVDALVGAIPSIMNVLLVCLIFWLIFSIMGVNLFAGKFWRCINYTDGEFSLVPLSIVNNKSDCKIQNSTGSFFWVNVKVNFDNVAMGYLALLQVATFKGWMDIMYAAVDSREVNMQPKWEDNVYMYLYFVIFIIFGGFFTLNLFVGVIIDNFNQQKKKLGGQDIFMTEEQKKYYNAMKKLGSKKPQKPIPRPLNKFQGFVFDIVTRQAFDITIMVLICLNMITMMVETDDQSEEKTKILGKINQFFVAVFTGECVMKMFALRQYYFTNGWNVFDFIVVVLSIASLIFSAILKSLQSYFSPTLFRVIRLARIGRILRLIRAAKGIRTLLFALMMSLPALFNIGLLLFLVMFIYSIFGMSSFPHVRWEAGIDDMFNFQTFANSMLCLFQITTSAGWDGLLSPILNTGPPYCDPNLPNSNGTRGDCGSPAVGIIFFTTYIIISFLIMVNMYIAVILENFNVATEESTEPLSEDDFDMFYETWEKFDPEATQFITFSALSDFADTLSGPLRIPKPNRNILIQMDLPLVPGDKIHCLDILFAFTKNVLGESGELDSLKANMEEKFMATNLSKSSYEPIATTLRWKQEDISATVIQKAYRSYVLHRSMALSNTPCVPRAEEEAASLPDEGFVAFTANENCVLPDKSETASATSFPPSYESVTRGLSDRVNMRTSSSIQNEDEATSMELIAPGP

Structure (SMILES) | pIC50 [1] | pIC50 [2] | pIC50 [3]
CC(C)N(Cc1ccccc1)C(=O)c1cnc(N2CCCCC2)nc1-c1ccccc1Cl [compound 1] | > 5.70 | 5.00 to 5.70 | 5.00 to 5.70
CC(C)(C)c1ccc(CN(C(=O)c2cnc(N3CCSCC3)nc2-c2ccccc2F)C2CC2)cc1 [compound 2] | 5.00 to 5.70 | < 5.00 | < 5.00
CC(C)N(C(=O)c1cnc(N2CCCCC2)nc1-c1ccccc1Cl)c1cccc(C(C)(C)C)c1 [compound 3] | < 5.00 | 5.00 to 5.70 | < 5.00
CCCN(CC1CC1)c1ncc(C(=O)N(Cc2cccc(OC)c2)C(C)C)c(-c2ccccc2F)n1 [compound 4] | > 5.70 | 5.00 to 5.70 | 5.00 to 5.70
CC(C)N(Cc1cccc(O)c1)C(=O)c1cnc(N2CCOCC2)nc1-c1ccccc1F [compound 5] | 5.00 to 5.70 | < 5.00 | < 5.00
O=C(c1cnc(N2CCCCC2)nc1-c1ccccc1Cl)N(Cc1ccc2c(c1)CCO2)C1CC1 [compound 7] | 5.00 to 5.70 | 5.00 to 5.70 | < 5.00
COc1cccc(N(C(=O)c2cnc(N3CCCCC3)nc2-c2ccccc2Cl)C2CCCC2)c1 [compound 8] | 5.00 to 5.70 | 5.00 to 5.70 | < 5.00
Cc1nc(N2CCOCC2)nc(-c2ccccc2F)c1C(=O)N(Cc1ccc(F)cc1)C1CC1 [compound 9] | 5.00 to 5.70 | 5.00 to 5.70 | < 5.00
Cc1cccc(CN(C(=O)c2c(C)nc(N3CCOCC3)nc2-c2ccccc2F)C2CC2)c1 [compound 10] | 5.00 to 5.70 | 5.00 to 5.70 | < 5.00
CCNc1ncc(C(=O)N(Cc2ccccc2)C(C)C)c(-c2ccccc2F)n1 [compound 11] | < 5.00 | < 5.00 | < 5.00
COc1ccc(N(C(=O)c2cnc(N3CCC4CCCCC4C3)nc2-c2ccccc2F)C(C)C)cc1 (centres unmarked) [compound 12] | > 5.70 | < 5.00 | < 5.00
Cc1nc(N2CCOCC2)nc(-c2ccccc2F)c1C(=O)N(Cc1ccccc1)C(C)C [compound 13] | 5.00 to 5.70 | < 5.00 | < 5.00
O=C(c1cnc(N2CCCCC2)nc1-c1ccccc1F)N(Cc1cccc(-c2ccncc2)c1)C1CC1 [compound 14] | 5.00 to 5.70 | < 5.00 | < 5.00
COc1cccc(Nc2ncc(C(=O)N(Cc3ccccc3)C(C)C)c(-c3ccccc3F)n2)c1 [compound 15] | < 5.00 | < 5.00 | < 5.00
CC(C)N(Cc1ccccc1)C(=O)c1cnc(N2CCOCC2)nc1-c1ccc(F)c(F)c1 [compound 16] | < 5.00 | < 5.00 | < 5.00
CC(C)N(Cc1ccccc1)C(=O)c1cnc(N2CCOCC2)nc1-c1cccc(/C=C/C(=O)O)c1 [compound 17] | < 5.00 | < 5.00 | < 5.00
CN1CCN(c2ncc(C(=O)N(Cc3ccncc3)C3CC3)c(-c3ccccc3F)n2)CC1 [compound 18] | < 5.00 | < 5.00 | < 5.00
O=C(NC1CCCC1)c1cnc(N2CCOCC2)nc1-c1ccccc1F [compound 19] | < 5.00 | < 5.00 | < 5.00
COc1cccc(CN(C(=O)c2cnc(N3CCCCC3)nc2-c2ccccc2F)C(C)C)c1 [compound 20, 4-(2-fluorophenyl)-N-isopropyl-N-(3-methoxybenzyl)-2-(piperidin-1-yl)pyrimidine-5-carboxamide] | > 5.70 | 5.00 to 5.70 | 5.00 to 5.70
COc1cccc(N(C(=O)c2c(C)nc(N3CCOCC3)nc2-c2ccccc2F)C(C)C)c1 [compound 21] | < 5.00 | < 5.00 | < 5.00
COc1cccc(CN(C(=O)c2cnc(N3CCc4ccccc4C3)nc2-c2ccccc2F)C(C)C)c1 [compound 22] | > 5.70 | 5.00 to 5.70 | < 5.00
CC(C)N(C(=O)c1cnc(N2CCN(C)CC2)nc1-c1ccccc1F)c1ccccc1 [compound 23] | < 5.00 | < 5.00 | < 5.00
CC(C)N(Cc1ccc(C(C)(C)C)cc1)C(=O)c1cnc(N2CCOCC2)nc1-c1ccccc1F [compound 24] | > 5.70 | 5.00 to 5.70 | 5.00 to 5.70
Cc1nc(N2CCOCC2)nc(-c2ccccc2F)c1C(=O)N(c1ccccc1)C(C)C [compound 25] | < 5.00 | < 5.00 | < 5.00
O=C(c1cnc(N2CCOCC2)nc1-c1ccccc1F)N(Cc1ccccc1)C1CCC1 [compound 26] | 5.00 to 5.70 | 5.00 to 5.70 | < 5.00

Structure (SMILES) | pIC50 [1] | pIC50 [2] | pIC50 [3]
COc1cccc(N(C(=O)c2cnc(N3CCCCC3)nc2-c2ccccc2Cl)C2CCC2)c1 [compound 27] | 5.00 to 5.70 | 5.00 to 5.70 | < 5.00
CN(C)CCN(Cc1ccccc1)C(=O)c1cnc(N2CCOCC2)nc1-c1ccccc1F [compound 28] | < 5.00 | < 5.00 | < 5.00
CC(C)N(Cc1ccccc1)C(=O)c1cnc(NC2CC3CCC2C3)nc1-c1ccccc1F (centres unmarked) [compound 29] | > 5.70 | 5.00 to 5.70 | 5.00 to 5.70
CCN(Cc1ccccc1)C(=O)c1cnc(NCCCOC)nc1-c1ccccc1F [compound 327] | < 5.00 | < 5.00 | –
CCC1CCC(C)N(C(=O)c2cnc(NCCc3ccc(OC)cc3)nc2-c2ccc(C#N)cc2)C1 (centres unmarked) [compound 329] | 5.00 to 5.70 | < 5.00 | –
COCCCNc1ncc(C(=O)NCC2CCCCC2)c(-c2cccc(C)c2)n1 [compound 330] | < 5.00 | < 5.00 | –
CCC(C)NC(=O)c1cnc(N(C)CCc2ccc(OC)c(OC)c2)nc1-c1ccc(C#N)cc1 (centres unmarked) [compound 331] | < 5.00 | < 5.00 | –
CCCCNC(=O)c1cnc(NCCCOC)nc1-c1cccc(C)c1 [compound 332] | < 5.00 | < 5.00 | –
CC1CC(C)CN(C(=O)c2cnc(N3CCOCC3)nc2-c2ccc(C#N)cc2)C1 (centres unmarked) [compound 333] | < 5.00 | < 5.00 | –
CC(=O)N1CCN(c2ncc(C(=O)N3CCC(C)CC3)c(-c3ccc(-c4ccccc4)cc3)n2)CC1 [compound 334] | 5.00 to 5.70 | < 5.00 | –
CCC(C)Nc1ncc(C(=O)N(C)CC)c(-c2ccc(C#N)cc2)n1 (centres unmarked) [compound 336] | < 5.00 | < 5.00 | –
CC1CCN(C(=O)c2cnc(N3CCOCC3)nc2-c2ccccc2F)CC1 [compound 337] | < 5.00 | < 5.00 | –
COCCCNC(=O)c1cnc(N2CCN(C(C)=O)CC2)nc1-c1cccc(C)c1 [compound 339] | < 5.00 | < 5.00 | –
CCN(Cc1ccccc1)C(=O)c1cnc(N2CCCC2)nc1-c1ccc(C#N)cc1 [compound 340] | < 5.00 | < 5.00 | –
CC(C)CN(CC(C)C)C(=O)c1cnc(N2CCCC2)nc1-c1ccc(C#N)cc1 [compound 341] | < 5.00 | < 5.00 | –
O=C(c1cnc(NCc2ccc3c(c2)OCO3)nc1-c1ccc(-c2ccccc2)cc1)N1CCCCC1 [compound 342] | < 5.00 | < 5.00 | –
CCN(C)c1ncc(C(=O)N2CCC(C)CC2)c(-c2cccc(C)c2)n1 [compound 343] | < 5.00 | < 5.00 | –
CCCCNc1ncc(C(=O)N2CCC(C)CC2)c(-c2ccc(C#N)cc2)n1 [compound 344] | < 5.00 | < 5.00 | –
N#Cc1ccc(-c2nc(NCC3CCCCC3)ncc2C(=O)NCCc2cccc(F)c2)cc1 [compound 345] | < 5.00 | < 5.00 | –
N#Cc1ccc(-c2nc(N3CCCC3)ncc2C(=O)NCC2CCCCC2)cc1 [compound 346] | < 5.00 | < 5.00 | –
CCN(C)c1ncc(C(=O)N2CC(C)CC(C)C2)c(-c2ccc(C#N)cc2)n1 (centres unmarked) [compound 347] | < 5.00 | < 5.00 | –
COCCNc1ncc(C(=O)N(CC(C)C)CC(C)C)c(-c2cccc(C)c2)n1 [compound 348] | < 5.00 | < 5.00 | –
COCCCNC(=O)c1cnc(N2CCOCC2)nc1-c1ccc(C#N)cc1 [compound 349] | < 5.00 | < 5.00 | –
CCN(Cc1ccccc1)C(=O)c1cnc(N2CCOCC2)nc1-c1ccccc1F [compound 350] | < 5.00 | < 5.00 | –
O=C(c1cnc(NCC2CCCCC2)nc1-c1ccccc1F)N1CCOCC1 [compound 351] | < 5.00 | < 5.00 | –
